The structures appear in SMILES notation. Some results are limits rather than exact numbers.

One series has as its system CMYC G4. Kind of series: PCR-stop assay, CMYC G4. In kind it is biochemical. The note with it: CMYC G4 sequence, GA 0-100 µM.
The subject of the next series is SW480 xenograft. Kind of series: SW480 xenograft study in NSG mice. In kind it is in vivo, NOD scid gamma (NSG) mice. The protocol: NOD scid gamma (NSG) mice were purchased from CIBM-UGR and housed at the animal facility according to institutional guidelines (Approved Ethical Committee #152-CEEA-OH-2016). For xenograft generation, 1 × 10^5 SW480 cells in 100 μL PBS were subcutaneously injected into the flank of 8-week-old female mice. Treatment started when tumors reached ~20 mm^3. Mice were randomly divided into two groups of seven mice each and treated with either vehicle DMSO or 200 mg/kg of GA intraperitoneally every other day for 38 days. Animals were monitored every two days after cell injection until final time point when they were sacrificed, and tumors were dissected for further analyses. Specifically, tumor volumes were determined every two days using digital calipers according to the formula: In progress tumor volume = (π × length × width^2)/6 [12].
Fixation, paraffin-embedding, and sectioning of tumor samples were performed by the histopathology core service at the Centre for Genomics and Oncological Research (Granada, Spain). In order to evaluate the percentage of proliferating cells, tumor sections were immunostained with Ki67 and counterstained with hematoxylin and eosin (H&E) at Atrys Health (Barcelona, Spain). The staining was visualized using NDP.view2 Viewing software (Hamamatsu), and Ki67 coverage was quantified on ten different images per tumor using Fiji software. In order to measure BG4 signal, tumor sections were dewaxed and rehydrated following standard methods. Epitope retrieval was performed at 100 °C for 20 min with citrate buffer (citrate-based buffer pH 6.0) according to previous studies. […] Slides were then counterstained for 5 min with DAPI to visualize the cell nuclei. Antifade Mowiol (81381, Merck, Darmstadt, Germany) was used as mounting media. Images were acquired on a Confocal Zeiss LSM 710 inverted microscope with a 63× immersion objective. BG4 mean nuclear fluorescence intensity was quantified using Fiji software (N > 2000). Antibodies used are listed in Supplementary Table S1.
We investigated the activity of GA in a mouse xenograft model of CRC to determine if the in vitro activity of GA was paralleled in vivo. According to previous reports with SW480 cells, we executed xenograft studies by subcutaneous injection in NOD scid gamma (NSG) mice. Intraperitoneal treatment started when tumors reached ~20 mm^3 (35 days post-injection), and a therapeutic schedule with either a vehicle or 200 mg/kg of GA, every other day for 38 days, was explored based on previous studies. Initially, each group included seven animals but two mice from the control group were excluded because the tumors had developed late. Therefore, five mice were considered in the control group and seven in the GA-treated one. […] In particular, when comparing the tumor volume between control and treated animals at each time point by Student’s two-tailed t-test, significant differences were observed from the 23rd day after initiation of the treatment. Histopathological analyses of tumors from animals sacrificed at the ending point were also conducted. […] Furthermore, immunohistochemical assessment of the antigen Ki67 was used to estimate cell proliferation.

A further series relates to SW620 cells. Kind of series: Resazurin cytotoxic assay, metastatic SW620. In kind it is cell-based, human. The note with it: 48 h, mean ± SD. The method, then:
CRL1790, SW480 and SW620 cell lines were purchased from American Type Culture Collection (ATCC). Cells were cultured at 37 °C with 5% CO2 atmosphere in medium supplemented with 10% fetal bovine serum (10270106, Gibco, Waltham, MA, USA), 10 mg/mL penicillin, 10 mg/mL streptomycin, […] amphotericin, and 0.03% L-Glutamine as recommended by the ATCC. MEM medium (M5650, Merck, Darmstadt, Germany) was used for non-tumoral CRL1790, and RPMI 1640 medium (L0501-500, Biowest, Nuaillé, France) was used for both tumoral SW480 and SW620 cell lines.
Cytotoxic activity was screened using Resazurin Fluorimetric Assay (R7017, Merck, Darmstadt, Germany), according to the manufacturer’s protocol. Cells seeded into 96-well plates (8 × 10^3 cells/well) were treated for 48 h with phenolic compounds at increasing concentrations from 2 × 10^−5 µM to 100 µM. Negative control with vehicle DMSO was included. Fluorescence was determined using Nanoquant Infinite M200 Pro multi-plate reader (Tecan). Half-maximal inhibitory concentration (IC50) values were determined in triplicate by non-linear regression with Graphpad (Prism).
Natural products such as phenolic compounds have recently attracted significant attention for their anticancer properties. […] We used three different cell lines to mimic CRC progression. In particular, CRL1790 are colon epithelial cells simulating the non-tumoral stage. In addition, SW480 is Dukes’ type B colorectal adenocarcinoma cells representing the primary tumor. Finally, SW620 constitutes Dukes’ type C colorectal adenocarcinoma derived from metastasic site cells to mimic the most aggressive metastasic stage. […] Cytotoxic potency upon 48 h treatment with phenolic compounds was examined by determination of half-maximal inhibitory concentration (IC50) values using the Resazurin method (Table 1). Only GA inhibited cell growth in SW480 and SW620 at clinically-relevant concentrations (IC50 values lower than 30 µM).
(In general: Resazurin is reduced to fluorescent resorufin, in cell work by metabolically active cells.)

Setting [1] is: tumors at end point, 200 mg/kg GA.

Take `O=C(O)c1cc(O)c(O)c(O)c1` [Gallic acid, 3,4,5-trihydroxybenzoic acid]: in the series with CMYC G4, the “concentration inhibiting accumulation of amplified products” value worked out at 50 µM. Moreover, the “body weight reduction or adverse effects” value in the series with SW480 xenograft (200 mg/kg GA i.p. every other day for 38 days) is given as “No body weight reduction or adverse effects such as tumor ulceration was observed”. For the same compound, the “progression of tumor xenografts (tumor volume)” value in the series with SW480 xenograft (200 mg/kg GA i.p. every other day for 38 days vs vehicle) is “robust blockade on the progression of tumor xenografts”. Further, the “damage to major organs” value in the series with SW480 xenograft (CRC xenografts treated with GA) was “without causing observable damage to major organs”. For the same compound, in the series on SW480 xenograft (responder mice, 200 mg/kg GA), the “5′ETS expression in tumors (qRT-PCR)” value is “significantly downregulated” and the “CMYC expression in tumors (qRT-PCR)” value is on record as “significantly downregulated”. Also, in the series on SW480 xenograft (setting [1]), the “Ki67 coverage in tumor sections” value is given as “coverage of Ki67 was significantly decreased” and the “nuclear BG4 signal in tumor sections” value is “significant increase in nuclear BG4 signal”. Further, inhibition in the series on SW620 cells was half-maximal at 11.8 ± 1.54 µM (IC50). Moreover, in the series with SW620 cells (listed as GA), the IC50 – broadly, the concentration that inhibits the measured activity by half – was < 30 µM.
